Measurements published in patent US20050282743A1, “Molecular interactions in cells” (Arbor Vita Corporation, priority 2001, published 2005).
Peptide text beside a SMILES is read from it. * marks the point of attachment. Biotin = O=C1N[C@H]2[C@H](CS[C@H]2CCCCC(=O)*)N1

Tests used:
Experiment in all cases: G' assay (10 uM PL peptide), results of TABLE 7 and TABLE 12
Assay type in all cases: binding
[1] = target: T1, PDZ protein (GST-PDZ fusion) (Homo sapiens, UniProt Q6P0Q8)
T1 construct: made in house; host or cells: E. coli (DH5alpha, BL21 or JM109)
Procedure, shortened: (§1)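 Biotinylated PL peptides at 10 uM (vs 20 uM in G^0 assay) bound to GST-PDZ fusions; PDZ protein at 5 ug/ml unless another concentration listed. Bound peptide read as A450 nm, classified 0–5 (0 = A450 0; 5 = A450 >4 repeated).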

[2] = target: T2, PDZ protein (GST-PDZ fusion) (Homo sapiens, UniProt O75970)
T2 construct: made in house; host or cells: E. coli (DH5alpha, BL21 or JM109)
Procedure, shortened: as §1

[3] = target: T3, PDZ protein (GST-PDZ fusion) (Homo sapiens, UniProt Q14160)
T3 construct: made in house; host or cells: E. coli (DH5alpha, BL21 or JM109)
Procedure, shortened: as §1

[4] = target: T4, PDZ protein (GST-PDZ fusion) (Homo sapiens, UniProt Q12923)
T4 construct: made in house; host or cells: E. coli (DH5alpha, BL21 or JM109)
Procedure, shortened: as §1

[5] = target: T5, PDZ protein (GST-PDZ fusion) (Homo sapiens, UniProt P78352)
T5 construct: made in house; host or cells: E. coli (DH5alpha, BL21 or JM109)
Procedure, shortened: as §1

[6] = target: T6, PDZ protein (GST-PDZ fusion) (Homo sapiens, UniProt Q5TCQ9)
T6 construct: made in house; host or cells: E. coli (DH5alpha, BL21 or JM109)
T6 sequence (Q5TCQ9 1-1481): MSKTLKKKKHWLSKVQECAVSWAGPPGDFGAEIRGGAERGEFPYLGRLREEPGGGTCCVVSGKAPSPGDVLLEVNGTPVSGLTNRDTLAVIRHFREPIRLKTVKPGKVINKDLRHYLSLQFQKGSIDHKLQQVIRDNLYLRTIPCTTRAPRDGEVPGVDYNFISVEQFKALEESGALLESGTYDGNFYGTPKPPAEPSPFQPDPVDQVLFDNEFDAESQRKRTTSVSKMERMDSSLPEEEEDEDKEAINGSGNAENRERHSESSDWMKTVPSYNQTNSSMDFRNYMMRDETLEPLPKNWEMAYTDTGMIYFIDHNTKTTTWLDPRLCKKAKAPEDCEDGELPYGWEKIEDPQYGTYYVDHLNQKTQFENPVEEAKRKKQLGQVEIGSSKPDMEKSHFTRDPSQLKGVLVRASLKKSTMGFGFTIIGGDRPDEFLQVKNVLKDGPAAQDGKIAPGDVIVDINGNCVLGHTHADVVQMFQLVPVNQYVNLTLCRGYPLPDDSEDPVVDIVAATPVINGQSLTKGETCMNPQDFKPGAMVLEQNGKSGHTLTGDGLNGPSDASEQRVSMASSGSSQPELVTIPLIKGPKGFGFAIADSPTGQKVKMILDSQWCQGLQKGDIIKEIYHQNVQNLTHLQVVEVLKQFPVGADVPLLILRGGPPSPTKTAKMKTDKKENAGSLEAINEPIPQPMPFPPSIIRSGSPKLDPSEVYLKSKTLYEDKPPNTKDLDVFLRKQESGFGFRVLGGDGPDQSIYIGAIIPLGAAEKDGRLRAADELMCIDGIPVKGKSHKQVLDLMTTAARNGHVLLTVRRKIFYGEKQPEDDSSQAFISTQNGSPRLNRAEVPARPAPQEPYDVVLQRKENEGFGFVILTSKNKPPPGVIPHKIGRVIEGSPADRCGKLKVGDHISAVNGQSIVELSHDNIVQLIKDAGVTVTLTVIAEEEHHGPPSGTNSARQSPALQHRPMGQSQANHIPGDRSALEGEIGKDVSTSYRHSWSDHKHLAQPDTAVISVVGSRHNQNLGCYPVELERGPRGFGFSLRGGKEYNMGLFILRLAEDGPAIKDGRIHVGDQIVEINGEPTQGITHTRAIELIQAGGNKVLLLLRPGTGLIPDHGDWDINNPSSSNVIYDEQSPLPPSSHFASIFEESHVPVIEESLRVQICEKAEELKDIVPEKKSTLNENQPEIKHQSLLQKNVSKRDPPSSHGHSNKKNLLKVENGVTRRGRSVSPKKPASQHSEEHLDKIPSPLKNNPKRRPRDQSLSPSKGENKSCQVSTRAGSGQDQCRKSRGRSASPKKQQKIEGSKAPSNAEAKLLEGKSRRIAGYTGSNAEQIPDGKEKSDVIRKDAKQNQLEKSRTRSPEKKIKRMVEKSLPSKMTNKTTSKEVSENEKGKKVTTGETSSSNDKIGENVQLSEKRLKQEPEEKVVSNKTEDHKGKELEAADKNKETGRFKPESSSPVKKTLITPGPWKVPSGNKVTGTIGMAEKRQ
Procedure, shortened: as §1

[7] = target: T7, PDZ protein (GST-PDZ fusion) (Homo sapiens, UniProt Q8NI35); settings: PDZ INADL
T7 construct: made in house; host or cells: E. coli (DH5alpha, BL21 or JM109)
Procedure, shortened: as §1

[8] = PDZ KIAA807, PDZ Domain not given

T1 sequence (Q6P0Q8 whole entry, the tested form may be a part): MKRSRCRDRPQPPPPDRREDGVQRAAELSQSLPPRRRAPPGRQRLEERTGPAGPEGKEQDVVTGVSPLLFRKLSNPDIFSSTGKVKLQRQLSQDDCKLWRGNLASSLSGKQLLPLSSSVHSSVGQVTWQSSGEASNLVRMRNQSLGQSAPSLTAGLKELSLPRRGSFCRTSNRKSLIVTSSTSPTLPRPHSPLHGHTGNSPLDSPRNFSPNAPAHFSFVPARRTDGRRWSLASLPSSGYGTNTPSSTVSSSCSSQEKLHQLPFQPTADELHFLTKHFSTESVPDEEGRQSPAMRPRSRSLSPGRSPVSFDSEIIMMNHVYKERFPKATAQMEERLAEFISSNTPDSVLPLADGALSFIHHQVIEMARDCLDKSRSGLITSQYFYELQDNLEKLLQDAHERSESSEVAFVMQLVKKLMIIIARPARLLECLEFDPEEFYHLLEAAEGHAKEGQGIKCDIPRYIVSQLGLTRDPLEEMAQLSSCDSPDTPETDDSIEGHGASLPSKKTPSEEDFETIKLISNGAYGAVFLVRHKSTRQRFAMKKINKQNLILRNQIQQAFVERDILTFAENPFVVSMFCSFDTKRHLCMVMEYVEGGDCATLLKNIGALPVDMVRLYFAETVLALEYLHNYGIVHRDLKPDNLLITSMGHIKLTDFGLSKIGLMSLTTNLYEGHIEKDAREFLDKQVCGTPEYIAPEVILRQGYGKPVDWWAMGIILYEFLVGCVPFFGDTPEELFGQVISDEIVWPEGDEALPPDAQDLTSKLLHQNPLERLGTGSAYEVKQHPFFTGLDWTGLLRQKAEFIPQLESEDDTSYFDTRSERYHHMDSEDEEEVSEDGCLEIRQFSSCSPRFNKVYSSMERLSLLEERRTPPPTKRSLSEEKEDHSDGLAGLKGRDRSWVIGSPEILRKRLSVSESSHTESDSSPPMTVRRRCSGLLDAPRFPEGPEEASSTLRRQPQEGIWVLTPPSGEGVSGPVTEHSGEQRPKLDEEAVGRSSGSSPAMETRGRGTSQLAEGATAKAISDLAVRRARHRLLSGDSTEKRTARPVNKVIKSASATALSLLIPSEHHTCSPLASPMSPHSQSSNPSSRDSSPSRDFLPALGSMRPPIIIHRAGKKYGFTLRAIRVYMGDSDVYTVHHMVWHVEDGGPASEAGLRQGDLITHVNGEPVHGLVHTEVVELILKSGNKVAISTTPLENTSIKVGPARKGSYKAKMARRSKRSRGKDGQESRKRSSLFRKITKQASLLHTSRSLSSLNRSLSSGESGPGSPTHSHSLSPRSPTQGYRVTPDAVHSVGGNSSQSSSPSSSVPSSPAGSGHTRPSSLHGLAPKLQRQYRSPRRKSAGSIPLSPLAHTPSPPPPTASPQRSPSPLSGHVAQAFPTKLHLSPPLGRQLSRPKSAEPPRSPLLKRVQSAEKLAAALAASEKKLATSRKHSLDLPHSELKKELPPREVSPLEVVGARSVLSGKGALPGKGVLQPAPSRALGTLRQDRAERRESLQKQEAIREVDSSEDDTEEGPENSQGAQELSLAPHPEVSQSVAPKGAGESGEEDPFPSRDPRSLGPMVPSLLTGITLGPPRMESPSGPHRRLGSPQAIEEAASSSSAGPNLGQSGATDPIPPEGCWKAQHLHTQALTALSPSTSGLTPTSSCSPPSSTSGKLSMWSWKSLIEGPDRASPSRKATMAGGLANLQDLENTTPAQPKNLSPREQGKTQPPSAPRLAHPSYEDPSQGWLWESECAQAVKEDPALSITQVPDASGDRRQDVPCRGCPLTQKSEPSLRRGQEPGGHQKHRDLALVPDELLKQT
T2 sequence (O75970 whole entry, the tested form may be a part): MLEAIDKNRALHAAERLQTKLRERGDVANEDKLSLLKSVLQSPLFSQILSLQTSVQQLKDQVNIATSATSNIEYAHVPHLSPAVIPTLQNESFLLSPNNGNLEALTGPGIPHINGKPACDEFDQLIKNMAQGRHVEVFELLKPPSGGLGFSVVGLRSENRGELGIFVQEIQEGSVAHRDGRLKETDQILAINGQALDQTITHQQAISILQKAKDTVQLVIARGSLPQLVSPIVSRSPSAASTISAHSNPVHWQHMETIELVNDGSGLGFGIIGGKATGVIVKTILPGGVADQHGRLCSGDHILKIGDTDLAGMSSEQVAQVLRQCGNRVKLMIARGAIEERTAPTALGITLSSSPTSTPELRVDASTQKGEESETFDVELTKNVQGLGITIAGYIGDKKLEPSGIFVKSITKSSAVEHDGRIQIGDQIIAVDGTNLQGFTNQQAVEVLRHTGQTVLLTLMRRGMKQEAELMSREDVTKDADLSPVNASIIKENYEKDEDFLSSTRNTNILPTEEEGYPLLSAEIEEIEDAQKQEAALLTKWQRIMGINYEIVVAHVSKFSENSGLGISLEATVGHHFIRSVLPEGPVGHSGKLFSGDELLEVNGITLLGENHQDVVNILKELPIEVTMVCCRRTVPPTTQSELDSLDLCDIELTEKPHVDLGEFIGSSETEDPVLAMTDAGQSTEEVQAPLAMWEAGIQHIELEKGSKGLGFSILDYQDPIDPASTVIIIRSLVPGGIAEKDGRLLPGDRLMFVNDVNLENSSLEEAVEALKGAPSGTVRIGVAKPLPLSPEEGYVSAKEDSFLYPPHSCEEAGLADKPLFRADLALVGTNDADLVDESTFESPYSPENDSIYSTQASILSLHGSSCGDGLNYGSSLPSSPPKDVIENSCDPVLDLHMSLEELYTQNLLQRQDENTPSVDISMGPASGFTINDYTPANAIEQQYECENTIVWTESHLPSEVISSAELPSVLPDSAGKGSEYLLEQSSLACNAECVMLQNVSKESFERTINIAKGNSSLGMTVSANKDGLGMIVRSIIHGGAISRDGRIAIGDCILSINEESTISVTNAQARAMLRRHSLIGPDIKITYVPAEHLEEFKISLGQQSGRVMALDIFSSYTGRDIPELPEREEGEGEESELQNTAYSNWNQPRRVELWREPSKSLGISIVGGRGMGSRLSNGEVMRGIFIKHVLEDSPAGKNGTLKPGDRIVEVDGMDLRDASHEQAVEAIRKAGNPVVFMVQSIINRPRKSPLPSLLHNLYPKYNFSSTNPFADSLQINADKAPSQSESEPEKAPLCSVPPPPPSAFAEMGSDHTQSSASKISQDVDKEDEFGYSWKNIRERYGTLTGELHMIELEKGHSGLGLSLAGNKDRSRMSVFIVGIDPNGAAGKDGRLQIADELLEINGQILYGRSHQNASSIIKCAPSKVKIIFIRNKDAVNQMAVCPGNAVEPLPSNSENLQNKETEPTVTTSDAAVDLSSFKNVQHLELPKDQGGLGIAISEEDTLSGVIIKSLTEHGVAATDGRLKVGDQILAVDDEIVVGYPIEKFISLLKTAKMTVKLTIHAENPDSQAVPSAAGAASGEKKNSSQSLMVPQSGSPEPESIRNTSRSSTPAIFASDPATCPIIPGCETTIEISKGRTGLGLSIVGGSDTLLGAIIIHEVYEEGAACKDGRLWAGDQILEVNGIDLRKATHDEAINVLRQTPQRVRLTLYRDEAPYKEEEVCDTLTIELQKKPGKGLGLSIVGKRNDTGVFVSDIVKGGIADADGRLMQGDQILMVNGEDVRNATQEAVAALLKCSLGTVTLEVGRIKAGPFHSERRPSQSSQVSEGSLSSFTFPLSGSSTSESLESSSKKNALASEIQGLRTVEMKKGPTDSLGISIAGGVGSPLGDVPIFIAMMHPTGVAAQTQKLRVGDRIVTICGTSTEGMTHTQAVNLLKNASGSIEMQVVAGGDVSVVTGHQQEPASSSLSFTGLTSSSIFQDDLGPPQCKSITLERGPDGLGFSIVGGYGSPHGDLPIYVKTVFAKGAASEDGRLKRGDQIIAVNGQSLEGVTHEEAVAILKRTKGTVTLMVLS
T5 sequence (P78352 whole entry, the tested form may be a part): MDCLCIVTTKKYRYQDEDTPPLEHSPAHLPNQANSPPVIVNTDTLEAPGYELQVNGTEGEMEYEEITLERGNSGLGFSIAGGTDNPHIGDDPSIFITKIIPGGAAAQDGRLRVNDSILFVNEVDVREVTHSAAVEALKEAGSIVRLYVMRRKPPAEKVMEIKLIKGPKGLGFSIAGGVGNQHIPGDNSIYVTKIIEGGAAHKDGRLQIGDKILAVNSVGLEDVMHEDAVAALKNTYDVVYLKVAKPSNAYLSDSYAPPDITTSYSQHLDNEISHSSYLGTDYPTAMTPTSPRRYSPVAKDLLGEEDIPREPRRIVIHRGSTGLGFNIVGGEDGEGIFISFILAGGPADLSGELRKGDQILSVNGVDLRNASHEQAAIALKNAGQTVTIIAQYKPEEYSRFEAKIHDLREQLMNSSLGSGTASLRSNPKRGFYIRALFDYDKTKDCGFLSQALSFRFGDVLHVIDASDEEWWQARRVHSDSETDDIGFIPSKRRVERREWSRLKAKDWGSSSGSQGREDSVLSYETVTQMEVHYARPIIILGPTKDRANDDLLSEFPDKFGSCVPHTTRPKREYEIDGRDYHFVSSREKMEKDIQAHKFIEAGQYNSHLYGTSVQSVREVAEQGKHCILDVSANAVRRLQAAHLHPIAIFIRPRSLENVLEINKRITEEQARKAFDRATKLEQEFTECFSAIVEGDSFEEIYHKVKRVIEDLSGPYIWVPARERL

SMILES | Classification [1, 8] | Classification ([2]; PDZ MUPP-1, PDZ Domain 10) | Classification ([2]; PDZ MUPP-1, PDZ Domain 13) | Classification ([3]; PDZ KIAA0147, PDZ Domain 1) | Classification ([4]; PDZ PTPL-1, PDZ Domain 2) | Classification ([5]; PDZ PSD95, PDZ Domain 1) | Classification ([5]; PDZ PSD95, PDZ Domain 1, 2, 3) | Classification ([5]; PDZ PSD95, PDZ Domain 3) | Classification ([6]; PDZ KIAA1634, PDZ Domain 1) | Classification ([6]; PDZ KIAA1634, PDZ Domain 2) | Classification ([7]; PDZ Domain 8) | further results
CC(C)C[C@H](NC(=O)[C@H](C)NC(=O)[C@H](CO)NC(=O)CNC(=O)[C@@H](NC(=O)CCCC[C@@H]1SC[C@@H]2NC(=O)N[C@@H]21)[C@@H](C)O)C(=O)N[C@@H](CCC(N)=O)C(=O)N[C@@H](C)C(=O)N[C@@H](Cc1c[nH]c2ccccc12)C(=O)N[C@@H](CCCNC(=N)N)C(=O)N[C@@H](Cc1c[nH]cn1)C(=O)N[C@H](C(=O)N[C@@H](CO)C(=O)N[C@@H](CCCNC(=N)N)C(=O)N[C@@H](CCC(N)=O)C(=O)N[C@@H](C)C(=O)N[C@H](C(=O)N[C@@H](CCC(=O)O)C(=O)N[C@@H](CO)C(=O)N[C@H](C(=O)N[C@H](C(=O)O)C(C)C)[C@@H](C)O)[C@@H](C)O)[C@@H](C)O [HPV E6 #66 (modified)] (Biotin-TGSALQAWRHTSRQATESTV-OH; C-terminus assumed) | 2 (A450 nm 1-2) | 1 (A450 nm 0-1) | 3 (A450 nm 2-3) | 2 (A450 nm 1-2) | 3 (A450 nm 2-3) | 4 (A450 nm 3-4) | 5 (A450 nm of 4 more than 2× repeated) | 1 (A450 nm 0-1) | 5 (A450 nm of 4 more than 2× repeated) | 1 (A450 nm 0-1) | 1 (A450 nm 0-1) | Classification ([1]; PDZ KIAA0807(S), PDZ Domain 1): 4 (A450 nm 3-4)
CSCC[C@H](NC(=O)[C@H](C)NC(=O)[C@H](CCCNC(=N)N)NC(=O)CNC(=O)[C@@H](NC(=O)[C@H](Cc1c[nH]c2ccccc12)NC(=O)[C@H](CCCNC(=N)N)NC(=O)CNC(=O)CCCC[C@@H]1SC[C@@H]2NC(=O)N[C@@H]21)[C@@H](C)O)C(=O)N[C@@H](CO)C(=O)N[C@@H](C)C(=O)N[C@@H](Cc1c[nH]c2ccccc12)C(=O)N[C@@H](CCCCN)C(=O)N1CCC[C@H]1C(=O)N[C@H](C(=O)N[C@@H](CCCNC(=N)N)C(=O)N[C@@H](CCCNC(=N)N)C(=O)N[C@@H](CCC(=O)O)C(=O)N[C@H](C(=O)N[C@@H](CCC(=O)O)C(=O)N[C@H](C(=O)O)C(C)C)[C@@H](C)O)[C@@H](C)O [HPV E6 #35 (modified)] (Biotin-GRWTGRAMSAWKPTRRETEV-OH; C-terminus assumed) | 5 (A450 nm of 4 more than 2× repeated) | 4 (A450 nm 3-4) | 5 (A450 nm of 4 more than 2× repeated) | 5 (A450 nm of 4 more than 2× repeated) | 2 (A450 nm 1-2) | 5 (A450 nm of 4 more than 2× repeated) | 5 (A450 nm of 4 more than 2× repeated) | 5 (A450 nm of 4 more than 2× repeated) | 5 (A450 nm of 4 more than 2× repeated) | 3 (A450 nm 2-3) | 4 (A450 nm 3-4) | Classification ([1]; PDZ KIAA0807(S), PDZ Domain 1, Protein Optimal Conc 0.5): 5 (A450 nm of 4 more than 2× repeated); Classification ([2]; PDZ MUPP-1, PDZ Domain 5): 2 (A450 nm 1-2); Classification ([3]; PDZ KIAA0147, PDZ Domain 2): 5 (A450 nm of 4 more than 2× repeated); Classification ([3]; PDZ KIAA0147, PDZ Domain 3): 4 (A450 nm 3-4); Classification ([3]; PDZ KIAA0147, PDZ Domain 4): 1 (A450 nm 0-1); Classification ([4]; PDZ PTPL-1, PDZ Domain 4): 1 (A450 nm 0-1); Classification ([6]; PDZ KIAA1634, PDZ Domain 4): 2 (A450 nm 1-2); Classification ([6]; PDZ KIAA1634, PDZ Domain 5): 3 (A450 nm 2-3); Classification ([7]; PDZ Domain 3): 1 (A450 nm 0-1); Classification ([7]; PDZ Domain 5): 1 (A450 nm 0-1)
